# Key:
# cleaved RIPK1 = test: Western blot for RIPK1 cleavage; type: cell-based
# Excerpt: (§1) The cells were lysed to prepare protein extracts.
# HeLa CARP-1 ko cells = test: MTT cell viability; type: cell-based, human
# [1] = biological target: T1, His-TAT-HA-CARP-1 (551-580) binding with Gst-NEMO (221-261) (Homo sapiens, UniProt Q8IX12); test: Pull-down and Western blot with E. coli expressed peptides; settings: then washed
# T1 construct: His-TAT-HA-CARP-1 (551-580); made in house; host or cells: E. coli BL21
# Protocol: The biochemical mechanism of inhibition of CARP-1 (551-580; SEQ ID NO: 6) binding with NEMO (221-261; SEQ ID NO: 2) by SNI-1 was assessed. E. coli expressed Gst-NEMO (221-261; SEQ ID NO: 2) and His-TAT-HA-CARP-1 (551-580; SEQ ID NO: 6) peptides in IP-WB assays were used. […] Since Adriamycin activates ATM to regulate canonical NF-κB and DSB repair pathways, it remains to be clarified whether CARP-1 regulates RIPK1 signaling dependent and/or independent of ATM.
# as §1
# [2] = system: follicular cell lymphoma cells; test: Cell viability, lymphoma; type: cell-based; settings: Homo sapiens; read-out: IC50, reduced viabilities
# [3] = system: p65/RelA activation and phosphorylation of NEMO; test: Western blot for canonical NF-κB activation; type: cell-based; settings: in presence of SNI-1
# Excerpt: as §1
# [4] = system: diffuse large B cell lymphoma cells; test: Cell viability, lymphoma; type: cell-based; settings: Homo sapiens, read-out: IC50, reduced viabilities
# MTT cell viability = type: cell-based; settings: human, wild-type HeLa cells; read-out: reduction in the viabilities
# [5] = Dose-route determination in non-tumor-bearing mice; type: in vivo, mouse; settings: 5% DMSO, 5% ethanol, 2% Tween 80 formulation
# murine TNBC cells = test: Cytokine ELISA of culture media; type: cell-based; settings: single agent
# [6] = biological target: T2, Flag-CARP-1 (546-580) binding with Biotin-NEMO (221-261) (Homo sapiens, UniProt Q8IX12); test: AlphaLISA assay of CARP-1/NEMO peptide binding (HTS format); settings: biphasic, read-out: IC50, inhibition of binding of CARP-1 (546-580) with NEMO (221-261) peptide
# T2 construct: Flag-tagged CARP-1 (546-580); purchased Peptides America, Fairfax, Va; host or cells: chemical synthesis
# Excerpt: The predicted kinetics of interaction of CARP-1 (551-600; SEQ ID NO: 5) and NEMO (221-261; SEQ ID NO: 2) epitopes was further validated by utilizing respective, chemically synthesized peptides to determine their in-solution binding by SPR technology (Sekhar et al. (2019) Cancers (Basel) 11). […] On the collective basis of the data in FIG. 1, and biophysical and SPR data above, in vitro binding assays were developed utilizing chemically synthesized CARP-1 and NEMO peptides. In the first instance, CARP-1 (551-580; SEQ ID NO: 6) and NEMO (221-261; SEQ ID NO: 2) peptides were used to carry out buffer optimization and DMSO tolerance of the assay. […] Presence of 0.01% tween minimizes non-specific binding and generates higher reproducibility as noted by smaller error bars in FIG. 15A. […]
# The AlphaLISA assay for high throughput screening: For screening of a library of chemical compounds, an […] assay was developed and optimized for use in 384-well format (SAMDI Tech, Chicago, Ill.). […] The assay signal (Fluorescence) was measured at 680 nm excitation and 615 nm emission wavelengths to determine assay robustness and DMSO tolerance. […] The plates were read on a Pherastar FS plate reader. […] Those wells were further analyzed to investigate the 8 compounds individually in duplicate.
# [7] = system: mammospheres derived from human TNBC PDX tumors; test: Three-dimensional mammosphere assay (MTT); type: cell-based; settings: SNI-1 2.5 or 5.0 μM, Adriamycin 5 μM, 48 h
# Protocol: Three-dimensional Mammosphere Assays: The PDX tumor cells were dissociated from the tumor fragments, and cultured for 2-dimensional and mammosphere studies in vitro (Cheriyan et al. (2016) Oncotarget 7, 73370-73388). Briefly, the cells were washed twice in 1×PBS, trypsinized, and pelleted at 200×g at room temperature. Cells were then re-suspended in 5 ml of mammosphere media (DMEM/F12 containing 2 mM L-glutamine, 100 U/ml penicillin, 100 U/ml streptomycin, 1×B27 supplement, 20 ng/ml recombinant human epidermal growth factor (EGF; Sigma), 10 ng/ml recombinant human basic fibroblast growth factor (bFGF; R&D Systems). Approximately 5000 viable cells per ml was then seeded in an ultra-low adherent 60 mm plate and incubated at 37° C. and 5% CO2 for two weeks without disturbing the plates. After the mammospheres formed, fresh media with or without Adriamycin (5 μM), SNI-1 (2.5 or 5.0 μM), or a combination of these agents was added and the cells incubated for additional 48 h at 37° C. and 5% CO2. The mammospheres in the untreated and treated plates were photographed, and the cells were then dissociated to determine their viabilities by the MTT assay (Cheriyan et al. (2016) Oncotarget 7, 73370-73388).
# HeLa NEMO ko cells = test: MTT cell viability; type: cell-based, human
# [8] = system: parental and chemo-resistant human and murine TNBC cells and parental renal cancer cells; test: Cytokine ELISA of culture media, chemotherapy-induced secretion; type: cell-based; settings: SNI-1 with Adriamycin or Cisplatin
# T1 sequence (Q8IX12 551-580 limits assumed): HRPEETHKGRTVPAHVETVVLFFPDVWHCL
# T2 sequence (Q8IX12 546-580 limits assumed): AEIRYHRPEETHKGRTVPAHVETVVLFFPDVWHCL
smiles,measurement,setting,value
"Cc1ccc(-n2nnnc2SCC(=O)c2ccc(O)c(O)c2)cc1 [SNI-1, 1-(3,4-dihydroxyphenyl)-2-{(1-(4-methylphenyl)-1H-tetrazol-5-yl)thio}ethanone]",expression of cleaved RIPK1,cleaved RIPK1,induced expression of cleaved RIPK1
same,loss of viabilities,HeLa CARP-1 ko cells,failed to provoke any loss of viabilities
same,binding of Gst-NEMO (221-261) with His-TAT-HA-CARP-1 (551-580) peptide,[1]; compound incubated with CARP-1 peptide immobilized on Ni-NTA beads,abrogated binding
same,binding of His-TAT-HA-CARP-1 (551-580) with Gst-NEMO (221-261) peptide,[1]; compound incubated with Gst-NEMO peptide immobilized on Gst sepharose beads,failed to abrogate binding
same,IC50,[2],~7.5 µM
same,p65 activation and NEMO phosphorylation by Adriamycin or Cisplatin,[3],diminished p65 activation and NEMO phosphorylation
same,IC50,[4],~10 µM
same,cytotoxicity,MTT cell viability,~30%
same,suitability for chronic intravenous administration,[5],not suitable for chronic intravenous administration
same,secretion of TNFα and IL-1β,murine TNBC cells,failed to cause increase
same,IC50,[6],~0.3 µM
same,growth/viability of mammospheres,[7],failed to inhibit growth of mammospheres
same,loss of viabilities versus similarly treated wild-type HeLa cells,HeLa NEMO ko cells,further significant loss of viabilities
same,"secretion of chemotherapy-induced TNFα, IL-8, and IL-1β",[8],robust decline in secretion

# Reference: US20210106567A1, “COMPOSITIONS AND METHODS FOR INHIBITING CARP-1 BINDING TO NEMO” (United States Government As Represented By The Department …, priority 2019, published 2021)
